Legend:
[1] = Affinity ratio of IC50 of MMP-8 to IC50 of MMP-3
Stromelysin-1 = Stromelysin-1 (Homo sapiens, UniProt P08254); experiment: Inhibitory concentration against human matrix metalloprotease-3 (MMP-3)
Neutrophil collagenase = Neutrophil collagenase (Homo sapiens, UniProt P22894); experiment: Inhibitory concentration against human matrix metalloprotease-8 (human neutrophil collagenase, MMP-8)
[2] = Affinity ratio of IC50 of MMP-3 to IC50 of MMP-8

Chain of Neutrophil collagenase (P22894 whole entry): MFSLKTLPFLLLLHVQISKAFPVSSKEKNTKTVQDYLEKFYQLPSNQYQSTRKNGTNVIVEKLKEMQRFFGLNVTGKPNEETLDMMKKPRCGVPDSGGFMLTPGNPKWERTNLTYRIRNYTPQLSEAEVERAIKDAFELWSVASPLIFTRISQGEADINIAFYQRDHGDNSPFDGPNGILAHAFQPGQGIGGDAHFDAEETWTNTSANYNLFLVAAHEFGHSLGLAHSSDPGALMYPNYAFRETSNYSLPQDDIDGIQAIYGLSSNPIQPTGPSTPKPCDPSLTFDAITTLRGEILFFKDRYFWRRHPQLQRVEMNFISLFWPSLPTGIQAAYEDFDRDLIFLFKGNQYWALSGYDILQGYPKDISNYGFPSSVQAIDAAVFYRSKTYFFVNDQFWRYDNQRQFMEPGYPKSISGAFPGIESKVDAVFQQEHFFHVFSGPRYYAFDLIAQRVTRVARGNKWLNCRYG
Chain of Stromelysin-1 (P08254 whole entry): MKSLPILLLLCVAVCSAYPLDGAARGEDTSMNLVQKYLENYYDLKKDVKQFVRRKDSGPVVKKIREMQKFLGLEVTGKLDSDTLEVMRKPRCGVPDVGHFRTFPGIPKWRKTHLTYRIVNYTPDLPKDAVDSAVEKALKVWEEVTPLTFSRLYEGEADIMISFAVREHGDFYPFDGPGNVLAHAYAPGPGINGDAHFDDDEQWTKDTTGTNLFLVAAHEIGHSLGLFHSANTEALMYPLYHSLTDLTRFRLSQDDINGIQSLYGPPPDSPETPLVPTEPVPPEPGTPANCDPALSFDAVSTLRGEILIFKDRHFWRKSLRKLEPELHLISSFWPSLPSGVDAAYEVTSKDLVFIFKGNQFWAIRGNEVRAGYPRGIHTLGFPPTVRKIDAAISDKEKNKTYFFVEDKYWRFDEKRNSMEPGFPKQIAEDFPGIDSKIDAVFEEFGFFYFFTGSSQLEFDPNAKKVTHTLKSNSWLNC

SMILES | Selectivity [1] | IC50 (Stromelysin-1) [nM l-1] | IC50 (Neutrophil collagenase) [nM] | IC50 (Stromelysin-1; read-out: IC50) [nM] | log10(IC50 MMP-3/IC50 MMP-8) [2]
COc1ccc(S(=O)(=O)N2Cc3cc(N)ccc3CC2C(=O)O)cc1 (stereo not given) | 0.7 | 10000 | 2000 |  | 
O=C(O)[C@H]1Cc2ccccc2CN1S(=O)(=O)c1ccc(-c2ccc(F)cc2)cc1 | 1.3 |  |  | 400 | 
O=C(NO)C1Cc2ccccc2CN1S(=O)(=O)c1ccc(-c2ccc(Cl)cc2)cc1 (stereo not given) |  |  | 3 | 20 | 0.82
O=C(NO)C1Cc2ccccc2CN1S(=O)(=O)c1cc(S(=O)(=O)c2ccccc2)cs1 (stereo not given) |  | 10000 | 2000 |  | 0.7
O=C(NO)C1Cc2ccccc2CN1S(=O)(=O)c1ccc(Oc2ccccc2)cc1 (stereo not given) |  |  | 2 | 20 | 1
CCCCCCCCCCCCCCCCS(=O)(=O)N1Cc2ccccc2CC1C(=O)NO (stereo not given) |  | 10000 | 3000 |  | 0.52
COc1ccc(S(=O)(=O)N2Cc3cc(NC(=O)[C@H](C)N)ccc3CC2C(=O)O)cc1 (stereo not given in full) | 0.7 | 10000 | 2000 |  | 
COc1ccc(S(=O)(=O)N2Cc3cc(O)ccc3CC2C(=O)NO)cc1 (stereo not given) |  |  | 1 | 10 | 1
COc1ccc(S(=O)(=O)N2Cc3cc(NC(=O)OC(C)(C)C)ccc3CC2C(=O)NO)cc1 (stereo not given) |  |  | 3 | 20 | 0.82
COc1ccc(S(=O)(=O)N2Cc3ncn(C)c3C[C@@H]2C(=O)O)cc1 |  | 10000 | 1000 |  | 1
CCOC(=O)Oc1ccc2c(c1)CN(S(=O)(=O)c1ccc(OC)cc1)C(C(=O)NO)C2 (stereo not given) |  |  | 2 | 20 | 1

Second part, the compound after the results:

Selectivity [1] | IC50 (Stromelysin-1) [nM l-1] | IC50 (Neutrophil collagenase) [nM] | IC50 (Stromelysin-1; read-out: IC50) [nM] | log10(IC50 MMP-3/IC50 MMP-8) [2] | SMILES
0.4 | 10000 |  |  |  | O=C(O)[C@@H]1Cc2ccccc2CN1S(=O)(=O)c1ccc(-c2ccc(F)cc2)cc1
1.12 |  | 30 | 400 |  | CC(C)(C)OC(=O)Nc1ccc2c(c1)CC(C(=O)O)N(S(=O)(=O)c1ccc(-c3ccc(F)cc3)cc1)C2 (stereo not given)
 |  | 70 | 400 | 0.76 | O=C(NO)C1Cc2ccccc2CN1S(=O)(=O)c1ccc2ccccc2c1 (stereo not given)
 |  | 200 | 3000 | 1.18 | COc1ccc(OC(=O)Nc2cccc(S(=O)(=O)N3Cc4ccccc4CC3C(=O)NO)c2)cc1 (stereo not given)
 |  | 30 | 900 | 1.48 | O=C(NO)C1Cc2ccccc2CN1S(=O)(=O)CCc1ccncc1 (stereo not given)
 |  | 80 | 700 | 0.94 | COC(=O)c1csc(S(=O)(=O)N2Cc3ccccc3CC2C(=O)NO)c1OC (stereo not given)
0.52 | 10000 | 3000 |  |  | COc1ccc(S(=O)(=O)N2Cc3cc(O)ccc3CC2C(=O)O)cc1 (stereo not given)
 |  | 200 | 400 | 0.3 | CN(C)c1cccc2c(S(=O)(=O)N3Cc4ccccc4CC3C(=O)NO)cccc12 (stereo not given)

From ChEMBL document CHEMBL1132460, “Affinity and selectivity of matrix metalloproteinase inhibitors: a chemometrical study from the perspective of ligands and proteins” (J Med Chem, 1999)
